Where “and” joins values, the source holds several entries; their conditions need not be identical. Equal entries are not always repeated.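 Assay format: 96-well plates, 48-hour exposure. Abbreviation: GI50, concentration required for 50% inhibition of growth. TGI: concentration producing complete growth inhibition.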
Legend:
Test in all cases: inhibition of tumour cell growth, NCI panel, 48 h
[1] = system: SK-OV-3 ovarian
[2] = system: MCF7 breast
[3] = system: CCRF-CEM leukemia
[4] = system: SF-295 CNS
[5] = system: MOLT-4 leukemia
[6] = system: TK-10 renal
[7] = system: SF-539 CNS
[8] = system: M14 melanoma
[9] = system: HT29 colon
[10] = system: OVCAR-3 ovarian

SMILES	GI50 [1]	TGI [1]	GI50 [2]	TGI [2]	GI50 [3]	TGI [3]	GI50 [4]	TGI [4]	GI50 [5]	TGI [5]	GI50 [6] [µM]	TGI [6]	GI50 [7]	TGI [7]	GI50 [8]	TGI [8]	GI50 [9]	TGI [9]	GI50 [10]	TGI [10]
O=C(c1ccc(Cl)cc1Cl)N1CCN(C(=O)c2ccc(Cl)cc2Cl)C1=S	22.8 µM	55.4 µM	18.3 µM	36.7 µM	19.5 µM	38.5 µM	22.9 µM	61.7 µM	20.5 µM	43.5 µM	36.3	> 100 µM	27.2 µM	49.6 µM	16.3 µM	30.2 µM	20.4 µM	48.9 µM	19.7 µM	42.4 µM
CCCC(=O)Oc1ccc(/C(=C(\C)c2ccc(Cl)cc2)c2ccc(OCCN(CC)CC)cc2)cc1	4.85 µM	17.5 µM	0.117 µM	3.47 µM	4.18 µM	15.5 µM	1.93 µM	3.81 µM	3.09 µM	10.5 µM	5.29	20.7 µM	1.94 µM	3.98 µM	1.9 µM	4.36 µM	1.85 µM	4.06 µM	6.98 µM	21.4 µM
CC(C)(C)OC(=O)NCCCCCCCCCn1c2c(c3ccccc3c1=O)C(=O)c1ccccc1-2	23.6 µM	78.3 µM	90 µM	> 100 µM	> 100 µM	> 100 µM	24.8 µM	> 100 µM	> 100 µM	> 100 µM	17.4	45.8 µM	18 µM	52.8 µM	> 100 µM	> 100 µM	> 100 µM	> 100 µM	29.2 µM	> 100 µM
COc1cc(C[C@H]2COC(=O)[C@]2(O)Cc2ccc(OCc3ccccc3)c(OC)c2)ccc1OCc1ccccc1	> 100 µM	> 100 µM	8.17 µM	> 100 µM	> 100 µM	> 100 µM	18.9 µM	> 100 µM	6.2 µM	> 100 µM	26.7	> 100 µM	37.6 µM	> 100 µM	47 µM	> 100 µM	4.16 µM	> 100 µM	> 100 µM	> 100 µM
COc1ccc(C2=Nn3c(nnc3-c3ccc(F)c(Cl)c3)SC2)cc1	> 100 µM	> 100 µM	> 100 µM	> 100 µM	57.8 µM	> 100 µM	> 100 µM	> 100 µM	> 100 µM	> 100 µM	> 100	> 100 µM	> 100 µM	> 100 µM	> 100 µM	> 100 µM	> 100 µM	> 100 µM	> 100 µM	> 100 µM
CCc1nc(N)nc(N)c1C#CC(C)c1ccc(-c2ccncc2)cc1Cl (centres undefined)	0.0977 µM and 0.0932 µM	2.63 µM and 14.6 µM	0.0144 µM and 0.0328 µM	4.31 µM and 12.1 µM	0.0143 µM and 0.0367 µM	5.48 µM and 14.5 µM	0.00508 µM and 0.0141 µM	0.809 µM and 4.24 µM	0.0276 µM and 0.0493 µM	4.62 µM and 8.45 µM	–	4.46 µM and 6.39 µM	0.0159 µM and 0.0423 µM	1.56 µM and 10.4 µM	< 0.005 µM and 0.0121 µM	1.61 µM and 10.3 µM	0.00589 µM and 0.012 µM	5.82 µM and 2.45 µM	0.0421 µM and 0.098 µM	2.06 µM and 13.3 µM
NCC(=O)Nc1ccc(Cl)cc1C(=O)c1ccc[nH]1	–	> 100 µM	–	> 100 µM	–	22.5 µM	–	> 100 µM	–	> 100 µM	–	> 100 µM	–	> 100 µM	–	> 100 µM	–	> 100 µM	–	> 100 µM
COc1ccc([N+](=O)[O-])c2c(NCCCN(C)C)c(C)c(C)nc12	–	> 100 µM	–	> 100 µM	–	> 100 µM	–	> 100 µM	–	> 100 µM	–	> 100 µM	–	> 100 µM	–	> 100 µM	–	> 100 µM	–	> 100 µM
COc1ccc2[nH]c3c(C)c4c(c(C)c3c2c1)CN(C)C=C4	–	56.6 µM	–	> 100 µM	–	34.7 µM	–	2.7 µM	–	37.7 µM	–	65.8 µM	–	2 µM	–	22.7 µM	–	22.3 µM	–	34.9 µM
COc1ccc(-c2cn(C)c3c2-n2cccc2C3=O)cc1O	5.86 µM	94.7 µM	0.806 µM	20.3 µM	3.66 µM	25.4 µM	5.22 µM	21.3 µM	7.21 µM	82.2 µM	3.05	8.29 µM	1.76 µM	16.5 µM	6.57 µM	20.3 µM	18 µM	> 100 µM	3.39 µM	21.4 µM

From PubChem BioAssay (NCI)
